# Results published in article PMC12034907 (Journal of Clinical Pharmacology, 2024).
# Entries after “also recorded” stand apart in the source; their conditions may differ. Read-outs that look alike come from different tables or passages of the source. Marks after values point to notes of the source that are not given here.
# What was measured:
# CYP3A4 [1] = system: CYP3A4
# [2] = Clinical DDI study: safety and tolerability; assay type: in vivo, human; conditions: for AEs leading to death / AEs leading to treatment discontinuation / Related AEs / Serious AEs / Severity of AE: Mild / Severity of AE: Moderate / Severity of AE: Severe / AEs: by period, safety population; for AEs: participants who experienced AEs
# CYP2C19 = conditions: liver metabolism; cited from earlier work
# CYP3A4 [3] = conditions: liver metabolism; cited from earlier work
# CYP2C9 = conditions: liver metabolism; cited from earlier work
# [4] = cited from earlier work
# CYP3A = conditions: cited from earlier work; for midazolam exposure relative to baseline exposure: studies with CYP3A inducers; for effect of CYP3A inhibitor on midazolam exposure: interaction studies
# [5] = midazolam 5 mg + mavacamten 15 mg on day 17, geometric mean (geometric CV%)
# [6] = midazolam 5 mg oral alone (day 1), geometric mean (geometric CV%)
# [7] = with mavacamten vs midazolam alone
smiles,measurement,setting,value
"OCc1ncc2n1-c1ccc(Cl)cc1C(c1ccccc1F)=NC2 [1′‐Hydroxymidazolam, 1′‐hydroxymidazolam]","tmax, median (range)","midazolam 5 mg + mavacamten 15 mg on day 17, n = 12",0.51 (0.50‐1.0) h
same,AUC0-inf,[5],47.76 (36.3) (n = 7) ^b ng∙h/mL
same,t1/2,[5],5.22 (29.9) (n = 7) ^b h
same,"tmax, median (range)","midazolam 5 mg oral alone (day 1), n = 13",1.00 (0.50‐2.08) h
same,AUC0-last,"midazolam 5 mg oral alone (day 1), n = 13, geometric mean (geometric CV%)",38.63 (22.2) ng∙h/mL
same,AUC0-inf,[6],41.47 (24.1) (n = 10) ^b ng∙h/mL
same,t1/2,[6],6.48 (24.7) (n = 10) ^b h
same,increase in AUC0-inf,CYP3A4 [1]; [7],20%
same,increase in AUC0-last,CYP3A4 [1]; [7],11%
same,increase in Cmax,CYP3A4 [1]; [7],28%
CC(C)n1c(=O)cc(N[C@@H](C)c2ccccc2)[nH]c1=O [Mavacamten],AEs leading to death,[2],0 n (%)
same,AEs leading to treatment discontinuation,[2],0 n (%)
same,Related AEs,[2],5 (38.5) n (%)
same,Serious AEs,[2],0 n (%)
same,Severity of AE: Mild,[2],9 (69.2) n (%)
same,Severity of AE: Moderate,[2],1 (7.7) n (%)
same,Severity of AE: Severe,[2],0 n (%)
same,tolerability,[2]; healthy participants,well tolerated
same,AEs,[2],9 (69.2) n (%)
same,share of metabolism by CYP2C19,CYP2C19,74%
same,share of metabolism by CYP3A4,CYP3A4 [3],18%
same,share of metabolism by CYP2C9,CYP2C9,8%
same,estimated oral bioavailability,[4],at least 85%
same,median time to maximum plasma concentration (tmax),[4],1 to 2 h
same,effect of mavacamten on midazolam exposure (CYP3A4 induction),"CYP3A4 [1]; clinically relevant mavacamten exposures, healthy participants",negligible effect; also recorded: did not meet the criteria for induction
Cc1ncc2n1-c1ccc(Cl)cc1C(c1ccccc1F)=NC2 [Midazolam],AEs leading to death,[2],0 n (%)
same,AEs leading to treatment discontinuation,[2],0 n (%)
same,Related AEs,[2],2 (15.4) n (%)
same,Serious AEs,[2],0 n (%)
same,Severity of AE: Mild,[2],3 (23.1) n (%)
same,Severity of AE: Moderate,[2],0 n (%)
same,Severity of AE: Severe,[2],0 n (%)
same,AEs,[2],3 (23.1) n (%)
same,Tmax,"human, plasma, oral, tmax, midazolam alone or with mavacamten",< 1 h
same,AUC(0-t),"human, plasma, po, 5 mg",51 ng·h/mL
same,t1/2,[5],4.84 (34.4) (n = 9) ^a h
same,t1/2,[6],5.28 (39.3) h
same,decrease in AUC0-inf,CYP3A4 [1]; [7],13%
same,decrease in AUC0-last,CYP3A4 [1]; [7],24%
same,decrease in Cmax,CYP3A4 [1]; [7],7%
NC(=O)N1c2ccccc2C=Cc2ccccc21 [carbamazepine],midazolam exposure relative to baseline exposure,CYP3A,below 10%
CC(=O)N1CCN(c2ccc(OCC3COC(Cn4ccnc4)(c4ccc(Cl)cc4Cl)O3)cc2)CC1 (centres unmarked) [ketoconazole],effect of CYP3A inhibitor on midazolam exposure,CYP3A,increases in midazolam exposure
O=C1NC(=O)C(c2ccccc2)(c2ccccc2)N1 [phenytoin],midazolam exposure relative to baseline exposure,CYP3A,below 10%
C[C@@H](c1ncncc1F)[C@](O)(Cn1cncn1)c1ccc(F)cc1F [voriconazole],effect of CYP3A inhibitor on midazolam exposure,CYP3A,increases in midazolam exposure
